Laboratory results published in patent US4861778A, “2,3-dihydrophthalazine-1,4-diones” (priority 1986, dated 1989).
Like-named read-outs stand apart in the source and are kept apart here.

Key:
[1] = tested on: serum cholesterol and serum triglycerides; test: Effect of Compound 1 on hyperlipidemic mice (Example 14); assay type: in vivo, CF1 male mice; settings: diet-induced hyperlipidemic CF1 mice, 20 mg/kg daily, 12 days
Description: Effect of Compound 1 on Hyperlipidemic Mice
A group of CF1 male mice were fed a diet resulting in induced hyperlipidemia.
These hyperlipidemic mice were treated for 12 days with Compound 1 (2,3-dihydrophthalazine-1,4-dione) at a daily dosage of 20 mg/kg. At the conclusion of this treatment regime the average serum cholesterol level of the hyperlipidemic mice was lowered to 221 mg percent, a 41 percent reduction.

[2] = tested on: serum cholesterol and serum triglyceride; test: Hypolipidemic effect of Compound No. 1 in normal Sprague-Dawley male rats (Example 12, Table III); assay type: in vivo; settings: 10 mg/kg/day orally
Description: In addition, rats were treated with Compound No. 1. The rats used in the test were normal Sprague-Dawley male rats, each weighting approximately 350 grams. The rats, tested in groups of six, were orally administered 10 mg/kg/d of Compound 1 in an aqueous solution of 1 percent CMC. The treatment of 10 milligrams per kilogram of body weight per day continued for 14 days. On Days 7 and 14 blood was obtained from each of the rats by tail vein bleeding. The blood obtained was separated centrifugation for three minutes. Serum cholesterol and serum triglyceride blood levels were determined in accordance with the procedure of Example 1.
(§1) In Table III the results are reported as percent of serum cholesterol and serum triglyceride based on the concentration of these materials found in the control, the rats treated with the 1 percent aqueous solution of CMC.

[3] = tested on: serum cholesterol and serum triglyceride; test: Hypolipidemic effect of Compound No. 1 in normal CF1 male mice, dose response (Example 12, Table III); assay type: in vivo
Description: The hypolipidemic effects of a preferred compound within the scope of the present invention, 2,3-dihydrophthalazine-1,4-dione (Compound No. 1), was tested in accordance with the procedure set forth in Example 11. However, in addition to testing normal CF1 male mice at 20 mg/kg/d ip, sets of six of these mice were treated with dosages of 10, 40 and 60 mg/kg/d. A set of six mice were again treated with a 1 percent aqueous solution of CMC, the carrier for the active agent, as a control.
as §1

[4] = tested on: plasma lipoprotein fractions; test: Determination of plasma lipoprotein fractions in rats (Example 13, Table IV); assay type: in vivo, Sprague-Dawley male rats; settings: 10 mg/kg/d orally
Description: Determination of Plasma Lipoprotein Fractions in Rats
Sets of six normal Sprague-Dawley male rats, each weighing approximately 350 grams, were orally treated with 10 milligrams per kilogram of body weight per day of 2,3-dihydrophthalazine-1,4-dione (Comp. No. 1) by intubation needle. In addition, a set of six Sprague-Dawley male rats of approximately the same weight were similarly treated except that the administered drug was the inert carrier, the 1 percent aqueous solution of CMC.
Blood was collected from all the rats participating in the test from the abdominal vein and lipoprotein fractions were obtained by the method of Hatch and Lees (Adv. Lipid Res., Vol. 6, 1 [1968]) and Havel et al. (J. Clin. Invest., Vol. 34, 1345 [1955]). Each of the fractions were analyzed for cholesterol in accordance with the Ness et al. test, for triglyceride level (Bio-Dynamic/bmc Triglyceride Kit), neutral lipids, in accordance with the test of Bragdon (J. Biol. Chem., Vol. 190, 513 [1951]), phospholipids, in accordance with the Stewart and Hendry procedure (Biochem. J., Vol. 29, 1683 [1935]) and protein levels, in accordance with the procedure of Lowry et al. (J. Biol. Chem., Vol. 193, 265 [1951]).

[5] = tested on: serum cholesterol and serum triglyceride; test: Hypolipidemic activity of 2,3-dihydrophthalazine-1,4-diones in normal male mice (Example 11, Table II); assay type: in vivo, CF1 male mice; settings: Mus musculus, ip, CF1 male mice, 20 mg/kg/day intraperitoneally
Description: Hypolipidemic Activity of 2,3-Dihydrophthalazine-1,4-Diones in Normal Male Mice
Each of the prepared compounds was administered intraperitoneally, in a dosage of 20 milligrams per kilogram of body weight per day, to a group of six CF1 male mice, each weighing approximately 25 grams, for 16 days. On Days 9 and 16 blood was obtained from each of the tested mice by tail vein bleeding. The blood serum so obtained was separated by centrifugation for three minutes. […] Serum triglyceride levels were obtained on Day 16 by use of the Bio-Dynamics/bm Triglyceride Kit.
In addition to the above-described treated mice, an untreated control group of six mice were similarly tested on Days 9 and 16 to determine their serum cholesterol and serum triglyceride blood levels.

## O=c1[nH][nH]c(=O)c2ccccc12 [Compound 1, 2,3-Dihydrophthalazine-1,4-Dione]
[1]
  reduction of serum cholesterol level: 41%
  reduction of serum triglycerides level: 56%
[1]; initial 367 mg/dl
  average serum triglycerides level after treatment: 161 mg/dL
[1]; initial 375 mg percent
  average serum cholesterol level after treatment: 221 mg percent
[2]; Day 7
  Cholesterol Day 7, % control ± standard deviation: 75 ± 5 % CONTROL
  Triglyceride Day 7, % control ± standard deviation: 66 ± 6 % CONTROL
[2]; Day 14
  Cholesterol Day 14, % control ± standard deviation: 68 ± 8 % CONTROL
  Triglyceride Day 14, % control ± standard deviation: 64 ± 5 % CONTROL
[3]; 10 mg/kg/day ip
  Cholesterol Day 9, % control ± standard deviation: 88 ± 5 % CONTROL
  Cholesterol Day 16, % control ± standard deviation: 76 ± 7 % CONTROL
  Triglyceride Day 16, % control ± standard deviation: 67 ± 5 % CONTROL
[3]; 20 mg/kg/day ip
  Cholesterol Day 9, % control ± standard deviation: 53 ± 4 % CONTROL
  Cholesterol Day 16, % control ± standard deviation: 49 ± 8 % CONTROL
  Triglyceride Day 16, % control ± standard deviation: 57 ± 4 % CONTROL
[3]; 40 mg/kg/day ip
  Cholesterol Day 9, % control ± standard deviation: 71 ± 7 % CONTROL
  Cholesterol Day 16, % control ± standard deviation: 60 ± 6 % CONTROL
  Triglyceride Day 16, % control ± standard deviation: 44 ± 3 % CONTROL
[3]; 60 mg/kg/day ip
  Cholesterol Day 9, % control ± standard deviation: 76 ± 8 % CONTROL
  Cholesterol Day 16, % control ± standard deviation: 55 ± 5 % CONTROL
  Triglyceride Day 16, % control ± standard deviation: 49 ± 5 % CONTROL
[4]; HDL, column 1
  HDL cholesterol, percent control ± standard deviation: 107 ± 3 PERCENT CONTROL
[4]; HDL, column 2
  HDL triglyceride, percent control ± standard deviation: 42 ± 4 PERCENT CONTROL
[4]; HDL, column 3
  HDL neutral lipids, percent control ± standard deviation: 86 ± 3 PERCENT CONTROL
[4]; HDL, column 4
  HDL phospholipids, percent control ± standard deviation: 42 ± 6 PERCENT CONTROL
[4]; HDL, column 5
  HDL protein, percent control ± standard deviation: 93 ± 7 PERCENT CONTROL
[4]; LDL, column 1
  LDL cholesterol, percent control ± standard deviation: 35 ± 6 PERCENT CONTROL
[4]; LDL, column 2
  LDL triglyceride, percent control ± standard deviation: 94 ± 7 PERCENT CONTROL
[4]; LDL, column 3
  LDL neutral lipids, percent control ± standard deviation: 88 ± 6 PERCENT CONTROL
[4]; LDL, column 4
  LDL phospholipids, percent control ± standard deviation: 125 ± 7 PERCENT CONTROL
[4]; LDL, column 5
  LDL protein, percent control ± standard deviation: 92 ± 8 PERCENT CONTROL
[4]; VLDL, column 1
  VLDL cholesterol, percent control ± standard deviation: 30 ± 5 PERCENT CONTROL
[4]; VLDL, column 2
  VLDL triglyceride, percent control ± standard deviation: 134 ± 10 PERCENT CONTROL
[4]; VLDL, column 3
  VLDL neutral lipids, percent control ± standard deviation: 81 ± 3 PERCENT CONTROL
[4]; VLDL, column 4
  VLDL phospholipids, percent control ± standard deviation: 91 ± 6 PERCENT CONTROL
[4]; VLDL, column 5
  VLDL protein, percent control ± standard deviation: 103 ± 7 PERCENT CONTROL
[4]; chylomicrons, column 1
  Chylomicrons cholesterol, percent control ± standard deviation: 82 ± 6 PERCENT CONTROL
[4]; chylomicrons, column 2
  Chylomicrons triglyceride, percent control ± standard deviation: 85 ± 7 PERCENT CONTROL
[4]; chylomicrons, column 3
  Chylomicrons neutral lipids, percent control ± standard deviation: 84 ± 8 PERCENT CONTROL
[4]; chylomicrons, column 4
  Chylomicrons phospholipids, percent control ± standard deviation: 92 ± 7 PERCENT CONTROL
[4]; chylomicrons, column 5
  Chylomicrons protein, percent control ± standard deviation: 102 ± 6 PERCENT CONTROL
[5]; 216 h, Day 9, read-out: Serum Cholesterol Day 9, percent control ± standard deviation
  response vs control in vivo at 20 mg/kg/day: 53 ± 4%
[5]; 384 h, Day 16, read-out: Serum Cholesterol Day 16, percent control ± standard deviation
  response vs control in vivo at 20 mg/kg/day: 49 ± 5%
[5]; 384 h, Day 16, read-out: Serum Triglyceride Day 16, percent control ± standard deviation
  response vs control in vivo at 20 mg/kg/day: 57 ± 4%
